Assay results as given in patent US7612089B2, “Tetrahydroisoquinolines as factor Xa inhibitors” (Portola Pharmaceuticals, Inc., priority 2004, dated 2009).

Target: T1, human plasma protein factor Xa (Homo sapiens, UniProt P00742)
T1 construct: The human plasma protein factor Xa was purchased; purchased Haematologic Technologies (Essex Junction, Vt.); host or cells: human plasma
Test: Factor Xa IC50 determination (cleavage of paranitroanilide substrate S-2765)
Format: biochemical
Details: fXa 1 nM, S2765 100 μM, Tris buffered saline pH 7.4, room temperature
From the text: This example illustrates methods for evaluating the compounds of the invention, along with results obtained for such assays. The in vitro and in vivo Factor Xa isoform activities of the inventive compounds can be determined by various procedures known in the art, such as a test for their ability to inhibit the activity of the Factor Xa isoform. […] The IC50 value is the concentration (in nM) of the compound required to provide 50% inhibition of Factor Xa isoform.
An in vitro assay for detecting and measuring inhibition activity against Factor Xa is as follows:
IC50 and Ki Determinations:
The substrate S-2765 (Z-D-Arg-Gly-Arg-pNA.HCl) was obtained from Diapharma (West Chester, Ohio).
The human plasma protein factor Xa was purchased from Haematologic Technologies (Essex Junction, Vt.).
All assays, which are performed in 96-well microtiter plates, measure proteolytic activity of the enzyme (factor Xa) by following cleavage of paranitroanilide substrate. The assay buffer used for proteolytic assays was Tris buffered saline (20 mM Tris, 150 mM NaCl, 5 mM CaCl2, 0.1% Bovine serum albumin (BSA), 5% Dimethly Sulfoxide (DMSO) pH 7.4). In a 96-well microtiter plate, inhibitor was serially diluted to give a range of concentrations from 0.01 nM to 10 μM (final). Duplicate sets of wells were assayed and control wells without inhibitor were included. Enzyme was added to each well, (fXa concentration=1 nM), the plate was shaken for 5 seconds and then incubated for 5 minutes at room temperature. S2765 was added (100 μM final) and the plate was shaken for 5 seconds (final liquid volume in each well was 200 μl). The degree of substrate hydrolysis was measured at 405 nm on a Thermomax plate reader (Molecular Devices, Sunnyvale, Calif.) for 2 minutes. The initial velocities (mOD/min), for each range of inhibitor concentrations, were fitted to a four parameter equation using Softmax data analysis software. The parameter C, derived from the resulting curve-fit, corresponded to the concentration for half maximal inhibition (IC50).

T1 sequence (P00742 235-488 limits assumed): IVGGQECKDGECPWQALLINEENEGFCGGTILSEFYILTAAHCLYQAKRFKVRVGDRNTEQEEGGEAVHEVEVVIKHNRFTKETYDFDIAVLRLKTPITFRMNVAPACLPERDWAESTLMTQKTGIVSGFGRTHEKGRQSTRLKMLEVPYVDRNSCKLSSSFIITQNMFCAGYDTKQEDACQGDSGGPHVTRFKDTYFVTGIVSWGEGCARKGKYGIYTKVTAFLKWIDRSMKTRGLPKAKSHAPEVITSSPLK
T1 sequence (P00742 41-179 partner limits assumed): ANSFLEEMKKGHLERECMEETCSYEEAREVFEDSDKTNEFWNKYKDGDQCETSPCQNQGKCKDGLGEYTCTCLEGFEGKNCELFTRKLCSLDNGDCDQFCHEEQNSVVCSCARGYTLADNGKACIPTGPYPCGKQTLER

Compound | IC50 [nM]
CN1CCCN(c2ccc(NC(=O)C3Cc4sccc4CN3C(=O)Nc3ccc(Cl)cc3)cc2)CC1 (centres unmarked) [Example 27, N-[4-(4-methyl-homopiperazinyl)]phenyl-5N-(4-chlorophenylaminocarbonyl)-4,5,6,7-tetrahydro-thieno[3,2-c]pyridine-6-carboxamide] | ≤ 100
CN1CCN=C1c1ccc(NC(=O)C2c3ccccc3CN2C(=O)Nc2ccc(Cl)cc2)cc1 (centres unmarked) [Example 28, N-[4-(1-methyl-4,5-dihydro-1H-imidazol-2-yl)phenyl]-2N-(4-chlorophenylaminocarbonyl)-2,3-dihydro-1H-isoindole-1-carboxamide] | ≤ 100
O=C(Nc1ccc(-c2cccc[n+]2[O-])cc1)C1c2ccccc2CN1C(=O)Nc1ccc(Cl)cc1 (centres unmarked) [Example 29, N-[4-(1N-oxo-pyridin-2-yl)phenyl]-2N-(4-chlorophenylaminocarbonyl)-2,3-dihydro-1H-isoindole-1-carboxamide] | ≤ 100
CN1CCCN(c2ccc(NC(=O)C3c4ccccc4CN3C(=O)Nc3ccc(Cl)cc3)cc2)CC1 (centres unmarked) [Example 30, N-[4-(4-methyl-homopiperazinyl)phenyl]-2N-(4-chlorophenylaminocarbonyl)-2,3-dihydro-1H-isoindole-1-carboxamide] | 100 to 500
O=C(Nc1ccc(N2CCOCC2=O)cc1)C1c2ccccc2CN1C(=O)Nc1ccc(Cl)cc1 (centres unmarked) [Example 31, N-[4-(3-oxo-morpholin-4-yl)phenyl]-2N-(4-chlorophenylaminocarbonyl)-2,3-dihydro-1H-isoindole-1-carboxamide] | ≤ 100
O=C(Nc1ccc(-c2cccc[n+]2[O-])cc1)C1Cc2ccccc2N1C(=O)Nc1ccc(Cl)cc1 (centres unmarked) [Example 32, N-[4-(1N-oxo-pyridin-2-yl)phenyl]-1N-(4-chlorophenylaminocarbonyl)-indoline-2-carboxamide] | 100 to 500
CN1CCCN(c2ccc(NC(=O)[C@H]3Cc4ccccc4CN3C(=O)Nc3ccc(Cl)cc3)cc2)CC1 [Example 33, (3R) N-[4-(4-methyl-homopiperazinyl)]phenyl-2N-(4-chlorophenylaminocarbonyl)-1,2,3,4-tetrahydroisoquinoline-3-carboxamide] | ≤ 100
CN1CCCN(c2ccc(NC(=O)[C@@H]3Cc4ccccc4CN3C(=O)Nc3ccc(Cl)cc3)cc2)CC1 [Example 34, (3S)N-[4-(4-methyl-homopiperazinyl)]phenyl-2N-(4-chlorophenylaminocarbonyl)-1,2,3,4-tetrahydroisoquinoline-3-carboxamide] | 100 to 500
CN1CCCN(c2ccc(NC(=O)[C@H]3Cc4ccccc4CN3C(=O)Nc3ccc(Cl)cc3)c(F)c2)CC1 [Example 35, (3R) N-[4-(4-methyl-homopiperazinyl)-2-fluorophenyl]-2N-(4-chlorophenylaminocarbonyl)-1,2,3,4-tetrahydroisoquinoline-3-carboxamide] | ≤ 100
O=C(Nc1ccc(-n2ccccc2=O)cc1)[C@H]1Cc2ccccc2CN1C(=O)Nc1ccc(Cl)cc1 [Example 36, (3R) N-[4-(2-pyridon-1-yl)phenyl]-2N-(4-chlorophenylaminocarbonyl)-1,2,3,4-tetrahydroisoquinoline-3-carboxamide] | ≤ 100
O=C(Nc1ccc(-n2ccccc2=O)cc1)[C@@H]1Cc2ccccc2CN1C(=O)Nc1ccc(Cl)cc1 [Example 37, (3S)N-[4-(2-pyridon-1-yl)phenyl]-2N-(4-chlorophenylaminocarbonyl)-1,2,3,4-tetrahydroisoquinoline-3-carboxamide] | ≤ 100
O=C(Nc1ccc(-n2ccccc2=O)cc1F)[C@H]1Cc2ccccc2CN1C(=O)Nc1ccc(Cl)cc1 [Example 38, (3R) N-[4-(2-pyridon-1-yl)-2-fluorophenyl]-2N-(4-chlorophenylaminocarbonyl)-1,2,3,4-tetrahydroisoquinoline-3-carboxamide] | ≤ 100
O=C(Nc1ccc(-n2ccccc2=O)cc1)C1Cc2cc(O)ccc2CN1C(=O)Nc1ccc(Cl)cc1 (centres unmarked) [Example 39, N-[4-(2-pyridon-1-yl)phenyl]-2N-(4-chlorophenylaminocarbonyl)-6-hydroxy-1,2,3,4-tetrahydroisoquinoline-3-carboxamide] | ≤ 100
CN1CCCN(c2ccc(NC(=O)C3Cc4cc(O)ccc4CN3C(=O)Nc3ccc(Cl)cc3)cc2)CC1 (centres unmarked) [Example 40, N-[4-(4-methyl-homopiperazinyl)phenyl]-2N-(4-chlorophenylaminocarbonyl)-6-hydroxy-1,2,3,4-tetrahydroisoquinoline-3-carboxamide] | ≤ 100
O=C(Nc1ccc(-n2ccccc2=S)cc1)C1Cc2cc(O)ccc2CN1C(=O)Nc1ccc(Cl)cc1 (centres unmarked) [Example 41, N-[4-(2-thiopyridon-1-yl)phenyl]-2N-(4-chlorophenylaminocarbonyl)-6-hydroxy-1,2,3,4-tetrahydroisoquinoline-3-carboxamide] | ≤ 100
O=C([C@H]1Cc2ccccc2CN1C(=O)Nc1ccc(Cl)cc1)N1CCC(N2CCCCC2=O)CC1 [Example 42, (3R) 4-(2-piperidinon-1-yl)piperidin-1-yl 2N-(4-chlorophenylaminocarbonyl)-1,2,3,4-tetrahydroisoquinoline-3-carboxamide] | ≤ 100
O=C([C@H]1Cc2ccccc2CN1C(=O)Nc1ccc(Cl)cc1)N1CCC(n2ccccc2=O)CC1 [Example 43, (3R) 4-(2-pyridon-1-yl)piperidin-1-yl 2N-(4-chlorophenylaminocarbonyl)-1,2,3,4-tetrahydroisoquinoline-3-carboxamide] | ≤ 100
O=C([C@H]1Cc2ccccc2CN1C(=O)Nc1ccc(Cl)cc1)N1CCC(N2CCOCC2=O)CC1 [Example 44, (3R) 4-(3-morpholinon-4-yl)piperidin-1-yl 2N-(4-chlorophenylaminocarbonyl)-1,2,3,4-tetrahydroisoquinoline-3-carboxamide] | ≤ 100
CN1CCN(c2ccc(NC(=O)[C@H]3Cc4ccccc4CN3C(=O)Nc3ccc(Cl)cc3)cc2)C(=O)C1 [Example 45, (3R) N-[4-(4-methyl-2-piperazinon-1-yl)phenyl]-2N-(4-chlorophenylaminocarbonyl)-1,2,3,4-tetrahydroisoquinoline-3-carboxamide] | 100 to 500
CN1CCCN(c2ccc(NC(=O)[C@H]3Cc4ccccc4CN3C(=O)Nc3ccc(Cl)cc3)cc2)C(=O)C1 [Example 46, (3R) N-[4-(4-methyl-2-homopiperazinon-1-yl)phenyl]-2N-(4-chlorophenylaminocarbonyl)-1,2,3,4-tetrahydroisoquinoline-3-carboxamide] | ≤ 100
O=C(Nc1ccc(-n2ccccc2=O)cc1)[C@H]1Cc2ccccc2CN1C(=O)Nc1ccc(F)cc1 [Example 47, (3R) N-[4-(2-pyridon-1-yl)phenyl]-2N-(4-fluorophenylaminocarbonyl)-1,2,3,4-tetrahydroisoquinoline-3-carboxamide] | ≤ 100
O=C(Nc1ccc(-n2ccccc2=O)cc1)[C@H]1Cc2ccccc2CN1C(=O)Nc1ccc(Cl)s1 [Example 48, (3R) N-[4-(2-pyridon-1-yl)phenyl]-2N-[5-(2-chlorothiophene)aminocarbonyl]-1,2,3,4-tetrahydroisoquinoline-3-carboxamide] | ≤ 100
CN1CCCN(c2ccc(NC(=O)[C@H]3Cc4ccccc4CN3C(=O)Nc3ccc(Cl)s3)cc2)CC1 [Example 49, (3R) N-[4-(4-methyl-homopiperazin-1-yl)phenyl]-2N-[5-(2-chlorothiophene)aminocarbonyl]-1,2,3,4-tetrahydroisoquinoline-3-carboxamide] | ≤ 100
